In this assay the test system is CD2F1 mice, L1210 leukemia ip, survival T/C. The assay can be described thus: NCI In Vivo Anticancer Drug Screen. Data for tumor model L1210 Leukemia (intraperitoneal) in CD2F1 (CDF1) mice. The note with it: endpoint: mean survival time, higher = longer survival. Put shortly: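 Activity against a transplanted murine tumor was judged by comparing the compound group with a vehicle group. The outcome in the treated animals was divided by that in the controls.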

Where [1] appears, read: dose: 100.0 mg/kg/injection, schedule: Q01DX009 (ip), vehicle: saline.
The mark [2] stands for this setting: dose: 100.0 mg/kg/injection, schedule: Q01DX001 (ip), vehicle: saline with Tween-80.
Where [3] appears, read: dose: 200.0 mg/kg/injection, schedule: Q01DX001 (ip), vehicle: saline with Tween-80.
Setting [4] is: dose: 100.0 mg/kg/injection, schedule: Q04DX002 (ip), vehicle: saline with Tween-80.
Setting [5] is: dose: 200.0 mg/kg/injection, schedule: Q04DX002 (ip), vehicle: saline with Tween-80.
Setting [6] is: dose: 400.0 mg/kg/injection, schedule: Q04DX002 (ip), vehicle: saline with Tween-80.
Where [7] appears, read: dose: 100.0 mg/kg/injection, schedule: Q01DX009 (ip), vehicle: saline with Tween-80.
The mark [8] stands for this setting: dose: 100.0 mg/kg/injection, schedule: Q04DX003 (ip), vehicle: other.
[9] abbreviates: dose: 200.0 mg/kg/injection, schedule: Q04DX003 (ip), vehicle: other.
The mark [10] stands for this setting: dose: 25.0 mg/kg/injection, schedule: Q04DX002 (ip), vehicle: saline with Tween-80.
The mark [11] stands for this setting: dose: 50.0 mg/kg/injection, schedule: Q04DX002 (ip), vehicle: saline with Tween-80.
Where [12] appears, read: dose: 400.0 mg/kg/injection, schedule: Q01DX001 (ip), vehicle: saline with Tween-80.

Several values for one entry are separate records, joined by “and”; a condition that tells them apart may be missing. Equal values may be shown once. Inconclusive results and toxic doses are left out.

Regarding `CNC(C)COc1ccc(O)cc1` (stereo unspecified), the T/C was 110 % of control under setting [1]; 108 % of control (dose: 100.0 mg/kg/injection, schedule: Q04DX003 (ip), vehicle: saline); 110 % of control (dose: 200.0 mg/kg/injection, schedule: Q01DX009 (ip), vehicle: saline); 104 % of control (dose: 200.0 mg/kg/injection, schedule: Q04DX003 (ip), vehicle: saline); 114 % of control (dose: 400.0 mg/kg/injection, schedule: Q04DX003 (ip), vehicle: saline).

For the molecule `Nc1nc([Se]Cc2ccc([N+](=O)[O-])cc2)c2ncn(C3OC(CO)C(O)C3O)c2n1` (stereo unspecified), the T/C is, setting by setting: (dose: 25.0 mg/kg/injection, schedule: Q01DX009 (ip), vehicle: saline) 111 % of control; (dose: 50.0 mg/kg/injection, schedule: Q01DX009 (ip), vehicle: saline) 119 % of control; under setting [1], 100 % of control.

As to `COC(=O)C1C2(C)CCc3cc(OC)ccc3C2=CC(=O)C1(C)C(=O)OC` (stereo unspecified), the T/C (dose: 100.0 mg/kg/injection, schedule: Q04DX003 (sc), vehicle: steriod suspending solution) is 97 % of control; the T/C (dose: 200.0 mg/kg/injection, schedule: Q04DX003 (sc), vehicle: steriod suspending solution) is 103 % of control; the T/C (dose: 400.0 mg/kg/injection, schedule: Q04DX003 (sc), vehicle: steriod suspending solution) is 98 % of control.

As to `Oc1ccc2cc3ccccc3cc2c1`, the T/C (dose: 25.0 mg/kg/injection, schedule: Q01DX001 (ip), vehicle: DMSO) is 104 % of control; the T/C (dose: 50.0 mg/kg/injection, schedule: Q01DX001 (ip), vehicle: DMSO) was 93 % of control; the T/C (dose: 100.0 mg/kg/injection, schedule: Q01DX001 (ip), vehicle: DMSO) was 87 % of control and 93 % of control.

In the case of `CC(c1ccc([N+](=O)[O-])cc1)C(O)c1ccccc1` (stereo unspecified), the T/C is, setting by setting: (dose: 100.0 mg/kg/injection, schedule: Q04DX003 (ip), vehicle: saline with Tween-80) 111 % of control; (dose: 200.0 mg/kg/injection, schedule: Q04DX003 (ip), vehicle: saline with Tween-80) 103 % of control; (dose: 400.0 mg/kg/injection, schedule: Q04DX003 (ip), vehicle: saline with Tween-80) 102 % of control.

Turning to `CC(=O)Oc1c[nH]c(=O)[nH]c1=O`, the T/C (dose: 12.5 mg/kg/injection, schedule: Q01DX009 (ip), vehicle: distilled water + Tween-80) was 97 % of control and 112 % of control; the T/C (dose: 25.0 mg/kg/injection, schedule: Q01DX009 (ip), vehicle: distilled water + Tween-80) was 97 % of control and 98 % of control; the T/C (dose: 50.0 mg/kg/injection, schedule: Q01DX009 (ip), vehicle: distilled water + Tween-80) was 102 % of control and 110 % of control; the T/C (dose: 100.0 mg/kg/injection, schedule: Q01DX009 (ip), vehicle: distilled water + Tween-80) was 114 % of control and 105 % of control; the T/C (dose: 200.0 mg/kg/injection, schedule: Q01DX009 (ip), vehicle: distilled water + Tween-80) was 114 % of control and 105 % of control; the T/C (dose: 400.0 mg/kg/injection, schedule: Q01DX009 (ip), vehicle: distilled water + Tween-80) is 117 % of control and 124 % of control.

Turning to `Cc1cccc(C)c1NC(=O)CCl`, the T/C is 103 % of control under setting [2] and 100 % of control under setting [3].

`CCOc1ccc(CCN2CC34C=CC(O3)C(C(=O)O)C4C2=O)cc1OC` (stereo unspecified): the T/C reads like this: under setting [4], 95 % of control; under setting [5], 95 % of control; under setting [6], 91 % of control.

`CCOc1ccc2ccccc2c1C(=O)N(CCCl)CCCl`: the T/C is, setting by setting: (dose: 25.0 mg/kg/injection, schedule: Q01DX009 (ip), vehicle: saline with Tween-80) 94 % of control; under setting [7], 104 % of control.

On to `Cc1c(N=NN(C)C)cc[n+]([O-])c1C`, for which the T/C (dose: 11.0 mg/kg/injection, schedule: Q01DX009 (ip), vehicle: water) was 121 % of control; the T/C (dose: 25.0 mg/kg/injection, schedule: Q01DX009 (ip), vehicle: water) was 157 % of control; the T/C (dose: 37.5 mg/kg/injection, schedule: Q01DX009 (ip), vehicle: water) is 159 % of control.

For the molecule `N#CC/C(=N\Nc1ccc([N+](=O)[O-])cc1[N+](=O)[O-])c1ccccc1`, the T/C is 100 % of control (dose: 100.0 mg/kg/injection, schedule: Q04DX003 (ip), vehicle: saline sonified); 100 % of control (dose: 200.0 mg/kg/injection, schedule: Q04DX003 (ip), vehicle: saline sonified); 97 % of control (dose: 400.0 mg/kg/injection, schedule: Q04DX003 (ip), vehicle: saline sonified).

`CCOC(=O)C1C=CCCC1` (stereo unspecified): the T/C under setting [7] is 97 % of control; the T/C (dose: 200.0 mg/kg/injection, schedule: Q01DX009 (ip), vehicle: saline with Tween-80) was 103 % of control; the T/C (dose: 400.0 mg/kg/injection, schedule: Q01DX009 (ip), vehicle: saline with Tween-80) was 95 % of control.

As for `CN(C)c1ccc(N=Nc2ccc3c(c2)C(=O)c2ccccc2C3=O)cc1`, the T/C runs as follows: under setting [8], 95 % of control; under setting [9], 93 % of control; (dose: 400.0 mg/kg/injection, schedule: Q04DX003 (ip), vehicle: other) 98 % of control.

Take `CN(C)Cc1cn(C2CC(O)C(CO)O2)c(=O)[nH]c1=O` (stereo unspecified): the T/C was 101 % of control (dose: 12.5 mg/kg/injection, schedule: Q01DX005 (ip), vehicle: water); 98 % of control (dose: 25.0 mg/kg/injection, schedule: Q01DX005 (ip), vehicle: water); 104 % of control (dose: 50.0 mg/kg/injection, schedule: Q01DX005 (ip), vehicle: water); 106 % of control (dose: 100.0 mg/kg/injection, schedule: Q01DX005 (ip), vehicle: water); 104 % of control (dose: 200.0 mg/kg/injection, schedule: Q01DX005 (ip), vehicle: water).

For the molecule `O=C(O)CCC(NC(=O)COc1ccc(Cl)cc1Cl)C(=O)O` (stereo unspecified), the T/C by setting is: under setting [10], 100 % of control; under setting [11], 95 % of control; under setting [4], 100 % of control and 101 % of control; under setting [6], 93 % of control.

Consider `CCCCCCCCCCCCCCCC[N+](C)(CCO)Cc1ccccc1` (stereo unspecified), for which the T/C by setting is: (dose: 3.13 mg/kg/injection, schedule: Q04DX002 (ip), vehicle: saline with Tween-80) 100 % of control; (dose: 6.25 mg/kg/injection, schedule: Q04DX002 (ip), vehicle: saline with Tween-80) 100 % of control; (dose: 12.5 mg/kg/injection, schedule: Q04DX002 (ip), vehicle: saline with Tween-80) 96 % of control.

On to `COC(=O)c1ccccc1N1C(=O)C=CC1=O`, for which the T/C is 98 % of control (dose: 12.5 mg/kg/injection, schedule: Q04DX003 (ip), vehicle: saline with Tween-80) and 89 % of control (dose: 25.0 mg/kg/injection, schedule: Q04DX003 (ip), vehicle: saline with Tween-80).

As to `CC(C)(C)c1ccc(OCC(=O)O)cc1`, the T/C was 100 % of control under setting [8] and 101 % of control under setting [9].

Take `FC(F)(F)S.[Hg]`: the T/C (dose: 5.0 mg/kg/injection, schedule: Q04DX003 (ip), vehicle: saline) was 101 % of control; the T/C (dose: 10.0 mg/kg/injection, schedule: Q04DX003 (ip), vehicle: saline) is 97 % of control; the T/C (dose: 20.0 mg/kg/injection, schedule: Q04DX003 (ip), vehicle: saline) was 95 % of control.

In the case of `CC12CC=CCC1CCC/C2=N/O` (stereo unspecified), the T/C was 113 % of control under setting [2]; 96 % of control (dose: 100.0 mg/kg/injection, schedule: Q04DX003 (ip), vehicle: acetone); 97 % of control under setting [3]; 98 % of control (dose: 200.0 mg/kg/injection, schedule: Q04DX003 (ip), vehicle: acetone); 103 % of control under setting [12]; 96 % of control (dose: 400.0 mg/kg/injection, schedule: Q04DX003 (ip), vehicle: acetone).

As for `O=C1C=C(N2C3C4CCC(C4)C32)C(=O)C=C1c1ccccc1` (stereo unspecified), the T/C runs as follows: (dose: 50.0 mg/kg/injection, schedule: Q01DX001 (ip), vehicle: saline with Tween-80) 96 % of control and 98 % of control and 108 % of control; under setting [2], 121 % of control and 94 % of control and 96 % of control; under setting [3], 115 % of control and 97 % of control and 102 % of control; under setting [12], 102 % of control.

In the case of `Cc1cccc(C2=N/C(=C\c3ccc(N(C)C)cc3)C(=O)O2)c1`, the T/C runs as follows: under setting [10], 102 % of control; under setting [11], 91 % of control; under setting [4], 94 % of control; under setting [5], 95 % of control; under setting [6], 95 % of control.

Source of the values: PubChem BioAssay AID256 (DTP/NCI, 2004).
